Data as given in PMC5049494, “Nitrotriazole-based acetamides and propanamides with broad spectrum antitrypanosomal activity” (European Journal of Medicinal Chemistry, 2016).
Like-named read-outs stand apart in the source and are kept apart here.

Columns and labels:
[1] = tested on: T.b. rhodesiense, strain STIB 900 trypomastigotes; assay: In vitro activity against T. b. rhodesiense; type: cell-based; conditions: for IC50: Trypanosoma brucei, read-out: T.b.r. IC50; for SI (T.b.r.): IC50 in L6 cells/IC50 in T.b. rhodesiense; for anti-HAT activity class (TDR criteria): T. b. rhodesiense; for fold more potent against T. b. rhodesiense than the corresponding acetamide: propanamide vs acetamide analog
Method: (§1) Compounds in Table 1 were screened for anti-parasitic activity against three trypanosomatids: T. cruzi, T. b. rhodesiense and Leishmania donovani and compared with previously made analogs shown in orange and designated with a. […] In addition, compounds were tested for toxicity in L6 rat skeletal myoblasts, the host cells for T. cruzi amastigotes, in order to calculate a selectivity index for each parasite [SI = IC50L6/IC50parasite] (Table 1). The TDR (Special Programme for Research and Training in Tropical Diseases, World Health Organization) criteria were adopted to interpret antiparasitic activity and selectivity.
(§2) In vitro activity against T. cruzi, T. b. rhodesiense, L. donovani and cytotoxicity assessment using L6 cells (rat skeletal myoblasts) was determined using a 96-well plate format as previously described. Data were analyzed with the graphic program Softmax Pro (Molecular Devices, Sunnyvale, CA, USA), which calculated IC50 values by linear regression from the sigmoidal dose inhibition curves.

[2] = tested on: L. donovani axenic, strain MHOM-ET-67/L82 amastigotes; assay: In vitro activity against L. donovani; type: cell-based; conditions: for IC50: Leishmania donovani, L. donovani axenic amastigotes MHOM-ET-67/L82, means of 2 to 3 measurements, SD < 5%, read-out: L.d. IC50; for SI (L.d.): IC50 in L6 cells/IC50 in L. donovani
Method: The concentration of compound that inhibits parasite growth by 50% (IC50) was calculated from dose response curves for each parasite (Table 1). In addition, compounds were tested for toxicity in L6 rat skeletal myoblasts, the host cells for T. cruzi amastigotes, in order to calculate a selectivity index for each parasite [SI = IC50L6/IC50parasite]
In vitro activity against T. cruzi, T. b. rhodesiense, L. donovani and cytotoxicity assessment using L6 cells (rat skeletal myoblasts) was determined using a 96-well plate format as previously described [37]. Data were analyzed with the graphic program Softmax Pro (Molecular Devices, Sunnyvale, CA, USA), which calculated IC50 values by linear regression from the sigmoidal dose inhibition curves.

[3] = tested on: bloodstream form T.b. brucei recombinant parasites expressing wild type (-tet) or elevated (+tet) levels of TbNTR; assay: microbe, parasite or virus in culture; type: cell-based; conditions: for IC50: Trypanosoma brucei; for Ratio –tet/+tet: ratio of IC50 values -tet/+tet
[4] = tested on: transgenic T. cruzi parasites expressing firefly luciferase; type: in vivo, Balb/c mice; conditions: for parasite load after 10 days of treatment: acute murine model, p < 0.0001; for parasitic level after 5-day treatment: compared to untreated control
Method: A fast luminescence assay was used in an acute infected murine model, in which transgenic T. cruzi parasites expressing firefly luciferase were injected in 5 week-old Balb/c mice. Mice were injected with D-luciferin before imaging. Groups of 5 mice/group were treated i.p. for 10 consecutive days with each compound, at 13 or 15 mg/kg/day. […] The mean ratio of parasite levels was calculated after 5 and 10 days of treatment.
For in vivo studies, a Brazilian strain trypomastigotes from transgenic T. cruzi parasites expressing firefly luciferase were used as described before. Briefly, parasites (10^5 trypomastigotes) were injected in 5 week-old Balb/c mice (Taconic) and three days later mice were anesthesized by inhalation of isofluorane, followed by an injection with 150 mg/kg of D-luciferin potassium-salt in PBS. Mice were imaged 5–10 min after injection of luciferin with an IVIS 100 (Xenogen, Alameda, CA) and the data acquisition and analysis were performed with the software LivingImage (Xenogen) as described before. Treatment with test compounds started 4 days post infection at 13 or 15 mg/kg/day × 10 days, given i.p. The vehicle control was 2% methylcellulose +0.5% Tween 80 and groups of 5 mice/group were used. Mice were imaged after 5 and 10 days of treatment. The ratio of parasite levels was calculated for each animal dividing the luciferase signal after treatment by the luciferase signal on the first imaging (before treatment). Mean values of all animals in each group ± SD were used for plotting.

[5] = Cytotoxicity in the host L6 cells; type: cell-based, rat; conditions: rat, L6 cells (rat skeletal myoblasts); cytotoxicity in host L6 cells; read-out: Cyt. L6 IC50
Method: as §1, §2

[6] = tested on: bloodstream form T.b. brucei wild type; assay: T. brucei antiproliferating assay, wild type; type: cell-based; conditions: means from 4 experiments ± SD
Method: The BSF of T. brucei parasites were seeded at 1 × 10^3 mL^−1 in 200 μL of growth medium containing different concentrations of nitroheterocycle. Where appropriate, induction of the TbNTR was carried out by adding tetracycline (1 μg/mL). After incubation for 3 days at 37 °C, 20 μL of Alamar blue was added to each well and the plates incubated for a further 16 h. The cell density of each culture was determined as described before and the IC50 established.

[7] = tested on: T. cruzi, strain Tulahuen C4 amastigotes; assay: In vitro activity against T. cruzi; type: cell-based; conditions: for IC50: Trypanosoma cruzi, T. cruzi Tulahuen C4 amastigotes, means of 2 to 3 measurements, SD < 5%, read-out: T. c. IC50; for Bnz/comp: fold antichagasic potency relative to Bnz (T. cruzi IC50 ratio); for SI (T. c.): IC50 in L6 cells/IC50 in T. cruzi
[8] = tested on: T. cruzi, strain Tulahuen C4 amastigotes; conditions: cited from earlier work; for SI (T. c.): IC50 L6/IC50 parasite; for SI (T. c.) / Bnz/comp: previously evaluated compounds; for Bnz/comp: fold potency relative to Bnz; for IC50: previously evaluated compounds (orange, designated a), read-out: T. c. IC50
[9] = tested on: L. donovani axenic, strain MHOM-ET-67/L82 amastigotes; parameters: method as in PMID 26344593, PMID 25580906; conditions: cited from earlier work; for SI (L.d.): IC50 L6/IC50 parasite, previously evaluated compounds; for IC50: previously evaluated compounds (orange, designated a), read-out: L.d. IC50
[10] = tested on: L6 cells (rat skeletal myoblasts); parameters: method as in PMID 26344593, PMID 25580906; conditions: previously evaluated compounds (orange, designated a); read-out: Cyt. L6 IC50; cited from earlier work
[11] = tested on: T.b. rhodesiense, strain STIB 900 trypomastigotes; parameters: method as in PMID 26344593, PMID 25580906; conditions: cited from earlier work; for IC50: previously evaluated compounds (orange, designated a), read-out: T.b.r. IC50; for anti-HAT activity class (TDR criteria): T. b. rhodesiense, previously evaluated acetamides
[12] = read-out: IC50 value T.b. brucei TbNTR (+tet)
[13] = read-out: IC50 value T.b. brucei TbNTR (-tet)
[14] = Trypanosoma brucei, read-out: IC50 value T.b. brucei Wild type, bloodstream form
[15] = T.b. rhodesiense STIB 900 trypomastigotes, means of 2 to 3 measurements, SD < 5%

## Nc1nc(N)nc(Nc2ccc([As]3SCC(CO)S3)cc2)n1 (centres unmarked) [Melars., Melarsoprol, reference compound]
[1]
  IC50: 9 ± 1 nM

## O=C(CCn1cnc([N+](=O)[O-])n1)Nc1ccc(Oc2ccc(F)cc2)cc1 [Compound 7, N-(4-(4-fluorophenoxy)phenyl)-3-(3-nitro-1H-1,2,4-triazol-1-yl)propanamide]
[2]
  IC50: 1180 nM
[3]; [12]
  IC50: 330 ± 30 nM
[3]; [13]
  IC50: 680 ± 70 nM
[4]; 13 mg/kg/day i.p. x 10 days
  toxicity symptoms in treated mice: No toxicity symptoms were observed
  parasite load after 10 days of treatment: undetectable levels
[4]; 13 mg/kg/day i.p.
  parasitic level after 5-day treatment: Statistically significant reduction in parasitic level
[5]
  IC50: 23400 nM
[6]; [14]
  IC50: ~650 nM
[6]; read-out: IC50 value T.b. brucei Wild type, bloodstream form
  IC50: 570 ± 50 nM
[1]; [15]
  IC50: 167 nM
[7]
  IC50: 40 nM
  Bnz/comp: 55

## O=C(Cn1cnc([N+](=O)[O-])n1)Nc1ccc(Oc2ccc(Cl)cc2)cc1 [Compound 6a]
[8]
  SI (T. c.): 3615
  Bnz/comp: 254
[9]
  SI (L.d.): 853
  IC50: 34 nM
[10]
  IC50: 28900 nM
[11]
  IC50: 1330 nM

## O=C(Cn1cnc([N+](=O)[O-])n1)Nc1ccc(Oc2ccccc2)cc1 [Compound 8a]
[8]
  SI (T. c.): 1416
  Bnz/comp: 31
  IC50: 65 nM
[9]
  SI (L.d.): 339
  IC50: 271 nM
[10]
  IC50: 92000 nM
[11]
  IC50: 2720 nM

## CN(C(=O)Cn1ccnc1[N+](=O)[O-])c1ccc(C(F)(F)F)cc1 [Compound 3, N-methyl-2-(2-nitro-1H-imidazol-1-yl)-N-(4-(trifluoromethyl)phenyl)acetamide]
[2]
  SI (L.d.): 3.96
  IC50: 47700 nM
[5]
  IC50: 189000 nM
[1]
  SI (T.b.r.): 1.9
  anti-HAT activity class (TDR criteria): inactive
[1]; [15]
  IC50: 97700 nM
other
  melting point: 45 to 47 °C
[7]; T. cruzi
  antichagasic activity class (TDR criteria): moderately active (IC50 between 4.0 and 60 μM)
[7]
  IC50: 49400 nM

## O=C(Cn1ccnc1[N+](=O)[O-])NCc1ccccc1 [Bnz, Benznidazole, reference compound]
[4]; 15 mg/kg/day i.p. x 10 days
  parasite load after 10 days of treatment: undetectable levels
[4]; 15 mg/kg/day i.p.
  parasitic level after 5-day treatment: Statistically significant reduction in parasitic level

## O=C(CCn1cnc([N+](=O)[O-])n1)Nc1cc(-c2ccc(F)cc2)on1 [Compound 12, N-(5-(4-fluorophenyl)isoxazol-3-yl)-3-(3-nitro-1H-1,2,4-triazol-1-yl)propanamide]
[2]
  SI (L.d.): >37
  IC50: 7790 nM
[2]; L. donovani
  antileishmanial activity class (TDR criteria): inactive
[3]; [12]
  IC50: 400 nM
[3]; [13]
  IC50: 1610 ± 100 nM
[3]
  Ratio –tet/+tet: 4.1
[5]
  IC50: > 289000 nM
[6]; [14]
  IC50: 760 ± 100 nM
[1]
  SI (T.b.r.): >201
  anti-HAT activity class (TDR criteria): moderately active (IC50 between 0.5 and 6.0 μM)
  fold more potent against T. b. rhodesiense than the corresponding acetamide: 5.6 fold
[1]; [15]
  IC50: 1440 nM
other
  melting point: 215 °C (dec.)
[7]
  SI (T. c.): >794
  IC50: 364 nM
  Bnz/comp: 6

## O=C(Cn1cnc([N+](=O)[O-])n1)Nc1ccc(Oc2ccc(F)cc2)cc1 [Compound 7a]
[8]
  SI (T. c.): 1954
  Bnz/comp: 56
  IC50: 36 nM
[9]
  SI (L.d.): 384
  IC50: 183 nM
[10]
  IC50: 70400 nM
[11]
  IC50: 2000 nM

## O=C(CCn1cnc([N+](=O)[O-])n1)Nc1cccc(-c2ccccc2)c1 [Compound 10, N-([1,1′-biphenyl]-3-yl)-3-(3-nitro-1H-1,2,4-triazol-1-yl)propanamide]
[2]
  SI (L.d.): 10.2
  IC50: 3550 nM
[3]; [12]
  IC50: 230 ± 20 nM
[3]; [13]
  IC50: 5580 ± 620 nM
[5]
  IC50: 36200 nM
[6]; [14]
  IC50: 6660 ± 920 nM
[1]
  SI (T.b.r.): 134
  fold more potent against T. b. rhodesiense than the corresponding acetamide: 214 fold
[1]; [15]
  IC50: 270 nM
other
  melting point: 174 to 176 °C
[7]
  SI (T. c.): 452
  IC50: 80 nM
  Bnz/comp: 28
[7]; propanamide vs acetamide analog
  fold more potent against T. cruzi than the acetamide analog: 2.2 fold

## CC1CS(=O)(=O)CCN1/N=C/c1ccc([N+](=O)[O-])o1 (centres unmarked) [nfx, Nifurtimox, reference compound]
[3]; [12]
  IC50: 869 ± 46 nM
[3]; [13]
  IC50: 6360 ± 119 nM
[3]
  Ratio –tet/+tet: 7.3
[6]; Trypanosoma brucei, bloodstream form, read-out: IC50 value T.b. brucei Wild type
  IC50: 3980 ± 150 nM

## O=C(Cn1cnc([N+](=O)[O-])n1)Nc1cccc(-c2ccccc2)c1 [Compound 10a]
[10]
  IC50: 45300 nM

## O=C(Cn1cnc([N+](=O)[O-])n1)NCc1ccc(C(F)(F)F)cc1 [Compound 2a]
[8]
  IC50: 970 nM
[9]
  IC50: 10400 nM
[1]; compared with N-methyl acetamide 2
  fold more potent against T. b. rhodesiense than 2: 5.8 fold
[11]
  anti-HAT activity class (TDR criteria): inactive
  IC50: 6470 nM

## O=C(Cn1cnc([N+](=O)[O-])n1)Nc1cccc(OCc2ccccc2)c1 [Compound 11a]
[8]
  Bnz/comp: 17
[9]
  IC50: 3360 nM
[10]
  IC50: 68400 nM
[11]
  anti-HAT activity class (TDR criteria): moderately active (IC50 between 0.5 and 6.0 μM)
  IC50: 4860 nM

## O=C(CCn1cnc([N+](=O)[O-])n1)Nc1ccc(Oc2ccccc2)cc1 [Compound 8, 3-(3-Nitro-1H-1,2,4-triazol-1-yl)-N-(4-phenoxyphenyl)propanamide]
[2]
  IC50: 2330 nM
[3]; [12]
  IC50: 410 ± 10 nM
[3]; [13]
  IC50: 1470 ± 30 nM
[5]
  IC50: 31600 nM
[6]; [14]
  IC50: 140 ± 10 nM
[1]
  SI (T.b.r.): 203
  fold more potent against T. b. rhodesiense than the corresponding acetamide: 17.4 fold
[1]; [15]
  IC50: 156 nM
other
  melting point: 108 to 110 °C
[7]
  SI (T. c.): 398
  IC50: 79 nM
  Bnz/comp: 28
